Reference: patent US10272045B2 (priority 2015, dated 2019)

How the values were obtained:
[1] = dog, in vivo
[2] = human, in vivo, cited from earlier work

Question: For O=[As]O[As]=O (stereo not drawn) [SV100], which oral absorption [1] is on record?
Answer: The oral absorption was “very limited absorption”.

Question: And the “oral bioavailability (F^b %)” value [1]?
Answer: The value was < 10%.

Question: For arsenic acid [Asv], which level in plasma [2] is on record?
Answer: Its level in plasma is “relatively low levels”.

Question: Which results are given for arsenious acid [AsIII]?
Answer: time to peak plasma concentration (end of infusion) ([2]; 0.15 mg/kg): 2 h; accumulation, Day 25 versus Day 1 of Cycle 1 [2]: ~2 fold; mean elimination half-life [2]: 10 to 14 h; renal clearance [2]: 9 L/h; total clearance [2]: 49 L/h; volume of distribution (Vss) [2]: 562 L
